# Results: patent US20130324615A1, “BIODEGREDATION SUPPRESSION SOLUTION FOR FORENSIC SAMPLES” (Indiana University Research and Technology Corporation, priority 2011, published 2013)
# Tests used:
# Format in all cases: cell-based
# [1] = test system: bacteria grown from soil sample extract; experiment: Anti-microbial agent screening: soil-extract broth cultures treated with agent, then sub-cultured; conditions: confirmation on TSA plates
# Experimental: In anti-microbial agent screening studies, a soil sample was extracted with a 0.9% saline solution of sodium chloride (NaCl) and water (H2O) and a sample loop was used to transfer approximately 10 μL of extract to a test tube containing sterile Tryptic Soy Broth (TSB). […] The broth samples were then treated with anti-microbial agents at a known concentration. The treated broth samples were then sub-cultured in another sterile TSB, minimal media (MM) or spread on sterile Tryptic Soy Agar (TSA) plates. MM is a nutrient deficient growth medium where citric acid is the only carbon source and which is selective against many species of bacteria. Bacterial growth was confirmed by visible inspection of the secondary TSB, MM or TSA plate. The broth/plate samples were then evaluated for how long they remained free of bacterial growth. […] The column labeled Bacterial Confirmatory Analysis provides the subculture media used to confirm bacterial growth.
# bacteria of soil sample = experiment: Culturing study: soil sample directly treated with anti-microbial agent, extract inoculated into sterile TSB; conditions: concentration not given
# Experimental: Additional culturing studies were carried out where a soil sample was directly treated with an anti-microbial agent. The exposure time of the soil sample to the anti-microbial was either 60 seconds or 24 hours. The extract was then sampled and used to inoculate a sterile TSB. The amount of time for bacterial growth to become visible was then noted.
# [2] = test system: bacteria from saline extract of a soil sample; experiment: Growth curve by UV-Vis absorbance at 600 nm of TSB inoculated with saline soil extract; conditions: TSB treated with 1.8% triclosan in 0.1 M NaOH or with bleach; room temperature, up to 80 days
# Experimental: FIG. 1 describes a growth curve constructed using UV-vis analysis of cultures taken from soil exposed to water, 0.1 M sodium hydroxide (NaOH), 1.81% triclosan and bleach.
# A final culturing study was conducted where a set of culture tubes containing sterile TSB were inoculated with a saline extract of a soil sample. One set of culture tubes contained only sterile TSB, a second set contained sterile TSB treated with 0.1 M NaOH, a third set contained sterile TSB treated with 1.8% triclosan in 0.1 M NaOH and a fourth set contained sterile TSB treated with bleach. The culture tubes were allowed to stand at room temperature for periods of up to 80 days. Growth was then monitored three times daily for up to 4 days by a single beam diode array UV-Vis Spectrophotometer in the 400 nm to 800 nm range. The absorbance of the samples at 600 nm was monitored over the course of the study.
compound,measurement,setting,value
"CC(C)(C)CC(C)(C)c1ccc(OCCOCC[N+](C)(C)Cc2ccccc2)cc1 [Benzethonium chloride in water, Benzethonium chloride]",Effective Period (time sub-culture remained free of bacterial growth),[1]; agent at 1%,0 days
"[H]/N=C(\N/C(=N/[H])NCCCCCCNC(=N)NC(=N)Nc1ccc(Cl)cc1)Nc1ccc(Cl)cc1 [Chlorhexidine in water, Chlorhexidine]",Effective Period (time sub-culture remained free of bacterial growth),[1]; agent at 14%,0 days
same,"Effective period (time for bacterial growth to become visible, cloudy)",bacteria of soil sample; soil exposure time 60 s,Cloudy after 8 days
same,"Effective period (time for bacterial growth to become visible, cloudy)",bacteria of soil sample; soil exposure time 24 hrs,Still clean after 36 days
"O=S(=O)([O-])[O-].[Cu+2] [Copper Sulfate in water, Copper Sulfate]",Effective Period (time sub-culture remained free of bacterial growth),[1]; agent at 5%,0 days
"Oc1cc(Cl)ccc1Oc1ccc(Cl)cc1Cl [triclosan, 2,4,4′-trichloro-2′-hydroxydiphenyl ether]",Bacterial growth by sample absorbance at 600 nm (FIG. 1),[2],prevent bacterial growth
Benzalkonium chloride [Benzalkonium chloride in water],Effective Period (time sub-culture remained free of bacterial growth),[1]; agent at 1%,0 days
